Test results reported in ChEMBL document CHEMBL1156096, “Synthesis and antitubercular activity of 7-chloro-4-quinolinylhydrazones derivatives” (Bioorg Med Chem Lett, 2009).
Converted amounts (≈) assume the structure as drawn.

Columns and labels:
[1] = tested on: Mycobacterium tuberculosis; assay: Antimycobacterial activity against Mycobacterium tuberculosis H37Rv ATCC 27294 by microplate alamar blue assay; type: functional
[2] = Cytotoxicity against mouse J774 cells assessed as cell viability at 1 ug/ml by MTT assay; type: cell-based; conditions: read-out: Activity
[3] = Cytotoxicity against mouse J774 cells assessed as cell viability at 10 ug/ml by MTT assay; type: cell-based; conditions: read-out: Activity
[4] = Cytotoxicity against mouse J774 cells assessed as cell viability at 100 ug/ml by MTT assay; type: cell-based; conditions: read-out: Activity
[5] = Cytotoxicity against mouse J774 cells infected with Mycobacterium bovis BCG assessed as cell viability at 1 ug/ml by MTT assay; type: cell-based; conditions: read-out: Activity
[6] = Cytotoxicity against mouse J774 cells infected with Mycobacterium bovis BCG assessed as cell viability at 10 ug/ml by MTT assay; type: cell-based; conditions: read-out: Activity
[7] = Cytotoxicity against mouse J774 cells infected with Mycobacterium bovis BCG assessed as cell viability at 100 ug/ml by MTT assay; type: cell-based; conditions: read-out: Activity

| SMILES | MIC [1] [µg/mL] | further results |
| --- | --- | --- |
| Oc1cccc(/C=N/Nc2ccnc3cc(Cl)ccc23)c1 | > 100 |  |
| O=[N+]([O-])c1cccc(/C=N/Nc2ccnc3cc(Cl)ccc23)c1 | > 100 |  |
| Fc1cccc(/C=N/Nc2ccnc3cc(Cl)ccc23)c1 | > 100 |  |
| O=[N+]([O-])c1ccc(/C=N/Nc2ccnc3cc(Cl)ccc23)cc1 | > 100 |  |
| Clc1ccc2c(N/N=C/c3ccccc3)ccnc2c1 | > 100 |  |
| O=[N+]([O-])c1ccccc1/C=N/Nc1ccnc2cc(Cl)ccc12 | > 100 |  |
| Clc1ccc2c(N/N=C/c3ccccc3Br)ccnc2c1 | > 100 |  |
| CC[C@@H](CO)NCCN[C@@H](CC)CO [ETHAMBUTOL] | 3.25 (≈ 15.9 µM) | viability at 1 ug/ml [2]: 100% |
| Clc1ccc2c(N/N=C/c3cccc(Br)c3)ccnc2c1 | 3.12 (≈ 8.65 µM) | viability at 1 ug/ml [2]: 88%; viability at 10 ug/ml [3]: 60%; viability at 100 ug/ml [4]: 3% |
| N#Cc1ccc(/C=N/Nc2ccnc3cc(Cl)ccc23)cc1 | > 100 |  |
| Clc1ccc2c(N/N=C/c3ccc(Br)cc3)ccnc2c1 | 2.5 (≈ 6.93 µM) | viability at 1 ug/ml [2]: 100%; viability at 1 ug/ml [5]: 100%; viability at 10 ug/ml [3]: 100%; viability at 100 ug/ml [4]: 91%; viability at 10 ug/ml [6]: 100%; viability at 100 ug/ml [7]: 85% |
